pEC50: −log10 of the molar value. Starred links: 1 amine or outer side, 2 acyl side, 3 side chain; linkers in the order of their positions; H or OH if unused. Positions of bridges follow the written chain, without caps; N, C: chain ends. Residues, ends and D or L forms follow the SMILES beside them. *: point of attachment. X1 = NC(=O)[C@H](CCCCNC(=O)CCCC[C@@H]1SC[C@@H]2NC(=O)N[C@@H]21)NC(=O)CCC(=O)NCCCOCCOCCOCCCN*; mXylylene = c1cc(C[*:1])cc(C[*:2])c1
Target: T1, GIPR (Homo sapiens, UniProt P48546)
T1 construct: host or cells: CHO-K1
T1 sequence (P48546 22-466): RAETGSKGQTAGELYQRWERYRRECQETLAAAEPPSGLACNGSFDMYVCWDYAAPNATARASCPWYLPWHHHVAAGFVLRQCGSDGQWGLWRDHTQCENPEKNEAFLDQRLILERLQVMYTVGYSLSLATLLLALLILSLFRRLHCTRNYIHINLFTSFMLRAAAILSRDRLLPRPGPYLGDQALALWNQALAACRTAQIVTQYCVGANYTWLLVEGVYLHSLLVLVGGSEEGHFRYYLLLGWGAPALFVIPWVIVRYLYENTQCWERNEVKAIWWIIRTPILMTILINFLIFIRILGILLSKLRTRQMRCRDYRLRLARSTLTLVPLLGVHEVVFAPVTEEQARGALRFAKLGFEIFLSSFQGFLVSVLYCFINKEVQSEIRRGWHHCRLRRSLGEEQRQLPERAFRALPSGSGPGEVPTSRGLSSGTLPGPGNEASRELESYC
Test: FACS binding assay
Settings: CHO-K1-hGIPR cells, various concentrations of biotinylated compound, 4°C for 1 hour, APC-Streptavidin detection
Description: In order to determine binding of compounds according to the present invention to GIPR-expressing cells, a FACS binding assay is established.
CHO-K1-hGIPR cells (GenScript Biotech, #M00486) are cultured in Ham's F12 medium (Sigma-Aldrich, #N4888) including 10% fetal calf serum (FCS), 2 mM L-glutamine, 100 U/mL penicillin, 100 µg/mL streptomycin, 200µg/mL Zeocin and 100µg/mL HygromycinB. Cells are detached with Accutase (Biolegend, #BLD-423201) and washed in FACS buffer (PBS including 1% FCS). Cells are diluted in FACS buffer to a final concentration of 500.000 cells per mL. 200 µL of the cell suspension is transferred to a u-shaped non-binding 96-well plate (Greiner) and cells are washed in ice-cold FACS buffer.
For EC50 determination, cells are incubated with various concentrations of biotinylated compound (H-Met-Tyr-Asp-Trp-Trp-Pro-Glu-Leu-[Cys(3MeBn)-Ala-Leu-Ile-Cys]-Ttds-Lys(Bio)-NH2) (SEQ ID NO: 3) at 4°C for 1 hour. […] For IC50 determination, cells are incubated with 20 nM of the biotinylated compound in the presence of increasing concentrations of non-labeled test compounds at 4°C for 1 hour. Cells are washed twice in FACS buffer. […]
Cells are analyzed in an Attune NxT flow cytometer. Median fluorescence intensities (MFI) of the APC/Cy5-channel are calculated by Attune NxT software. […]

pEC50: 8.50
Structure (SMILES): CC[C@H](C)[C@@H]1NC(=O)[C@H](CC(C)C)NC(=O)[C@H](C)NC(=O)[C@@H](NC(=O)[C@H](CC(C)C)NC(=O)[C@H](CCC(=O)O)NC(=O)[C@@H]2CCCN2C(=O)[C@H](Cc2c[nH]c3ccccc23)NC(=O)[C@H](Cc2c[nH]c3ccccc23)NC(=O)[C@H](CC(=O)O)NC(=O)[C@H](Cc2ccc(O)cc2)NC(=O)[C@@H](N)CCSC)CSCc2cccc(c2)CSC[C@@H](C(=O)NCCCOCCOCCOCCCNC(=O)CCC(=O)N[C@@H](CCCCNC(=O)CCCC[C@@H]2SC[C@@H]3NC(=O)N[C@@H]32)C(N)=O)NC1=O [biotinylated compound, H-Met-Tyr-Asp-Trp-Trp-Pro-Glu-Leu-[Cys(3MeBn)-Ala-Leu-Ile-Cys]-Ttds-Lys(Bio)-NH2] (H-MYDWWPELCALIC-X1; linker 9-13 via mXylylene)

— EP4455159A1, “GASTRIC INHIBITORY PEPTIDE RECEPTOR LIGANDS WITH BIO-DISTRIBUTION MODIFIER” (3B Pharmaceuticals GmbH, priority 2023, dated 2024)
